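These data come from cells grown in 96-well plates and exposed to compound for 48 hours at five concentrations. Here, GI50 denotes the concentration required for 50% inhibition of growth.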 Active and inactive are the calls of the source. Rule as the data show it: active = GI50 up to about 1.1 µM and inactive = higher. Bounds are passed on as bounds.

Some test systems named below: UACC-257; SF-539; NCI/ADR-RES; TK-10; NCI-H23; SF-268; SW-620; SK-MEL-2; SK-OV-3; M14; U-251; OVCAR-8; NCI-H460; Malme-3M; A549; HCT-15; MDA-MB-231; ACHN; HCC 2998; NCI-H226.
What all share (assay): DTP human tumour cell line panel, 48 h

Usually GI50 stands for the concentration that inhibits growth by half. Turning to `Cc1c(OCc2ccccc2)c(=O)ccn1CCc1c[nH]c2ccccc12`, the GI50 was 73.8 µM (inactive) with UACC-257; 43.4 µM (inactive) with SF-539; 86.7 µM (inactive) in the assay with NCI/ADR-RES; 40.6 µM (inactive) in the assay with TK-10; 37.6 µM (inactive) with NCI-H23; 19.2 µM (inactive) in the assay on SF-268. In addition, the GI50 in the assay with SW-620 is 36.1 µM (inactive); with SK-MEL-2, 19 µM (inactive); in the assay on SK-OV-3 it was > 100 µM (inactive); with M14 it was 30 µM (inactive); in the assay on U-251, 29.6 µM (inactive); with OVCAR-8, 53 µM (inactive). The GI50 with NCI-H460 is 33.7 µM (inactive); with Malme-3M it was 22.1 µM (inactive); in the assay on A549, 36.6 µM (inactive); with HCT-15 it was 74.8 µM; in the assay with MDA-MB-231, 34.1 µM (inactive); in the assay on ACHN it was > 100 µM (inactive).

With `CN(CCCCCl)P(=O)(OCC1=CC(=O)c2ccccc2C1=O)OC[C@H]1O[C@@H](n2cc(F)c(=O)[nH]c2=O)C[C@@H]1O` (stereo not given in full), the GI50 was 6.17 µM (inactive) in the assay with UACC-257; < 0.0244 µM (active) in the assay on SF-539; 1.45 µM (inactive) in the assay with TK-10; < 0.01 µM (active) in the assay on HCC 2998; 0.0532 µM (active) with NCI-H23; < 0.01 µM (active) with SF-268. Also, the GI50 in the assay on SW-620 was 3.51 µM (inactive); in the assay with SK-MEL-2 it was 8.09 µM (inactive); with NCI-H226, 0.521 µM (active); in the assay on M14, 0.0897 µM (active); in the assay on OVCAR-8, 0.0378 µM (active); in the assay on NCI-H460 it was < 0.01 µM (active). The GI50 is 1.1 µM (active) in the assay on Malme-3M; < 0.01 µM (active) with A549; 3.66 µM in the assay with HCT-15; 3.2 µM (inactive) in the assay with MDA-MB-231; < 0.01 µM (active) in the assay with ACHN.

Regarding `COP(=O)(OC)[C@H](O)[C@H]1C[C@@H]1c1ccccc1`, the GI50 in the assay with UACC-257, in the assay with NCI/ADR-RES, with TK-10, in the assay with HCC 2998, in the assay on NCI-H23 and in the assay with SF-268 was > 100 µM (inactive) throughout. Moreover, the GI50 in the assay on SW-620, in the assay on SK-MEL-2, in the assay on NCI-H226, with SK-OV-3, in the assay with M14 and in the assay on U-251 was > 100 µM (inactive) in each case. The GI50 is > 100 µM (inactive) in the assay with OVCAR-8; > 100 µM (inactive) in the assay with NCI-H460; > 100 µM (inactive) with Malme-3M; > 100 µM (inactive) in the assay on A549; greater than 100 µM in the assay with HCT-15; > 100 µM (inactive) in the assay with MDA-MB-231. Besides, in the assay with ACHN, the GI50 was > 100 µM (inactive).

Take `O=C(N/N=C/C=C/c1ccc([N+](=O)[O-])o1)c1ccc(Br)s1`: the GI50 in the assay on SF-539 is 26.8 µM (inactive); in the assay with NCI/ADR-RES, 25.1 µM (inactive); in the assay with TK-10, 20 µM (inactive); in the assay with NCI-H23, 14.9 µM (inactive); in the assay with SF-268, 28.8 µM (inactive); in the assay on SW-620, 16.1 µM (inactive). In addition, the GI50 with SK-MEL-2 is 23.3 µM (inactive); with NCI-H226 it was 22.2 µM (inactive); in the assay on SK-OV-3 it was > 100 µM (inactive); in the assay on M14 it was 20.4 µM (inactive); in the assay on U-251 it was 28.1 µM (inactive); in the assay with OVCAR-8 it was 16.9 µM (inactive). The GI50 with NCI-H460 was 42.7 µM (inactive); in the assay with Malme-3M, 14.9 µM (inactive); in the assay on A549, 82.8 µM (inactive); with HCT-15, 13.2 µM; in the assay on MDA-MB-231, 22.8 µM (inactive); with ACHN it was 16.3 µM (inactive).

For the compound `O=C1Oc2ccc([N+](=O)[O-])cc2N/C1=C\C(=O)c1ccccc1`, the GI50 with UACC-257 was > 100 µM (inactive); with NCI/ADR-RES, > 100 µM (inactive); with TK-10, 25.1 µM (inactive); in the assay on HCC 2998, 28.1 µM (inactive); with NCI-H23 it was > 100 µM (inactive); with SF-268, > 100 µM (inactive). Also, the GI50 was > 100 µM (inactive) in the assay with SW-620; 27.9 µM (inactive) in the assay with SK-MEL-2; > 100 µM (inactive) with NCI-H226; > 100 µM (inactive) in the assay with SK-OV-3; > 100 µM (inactive) in the assay on M14; 78.5 µM (inactive) with U-251. Moreover, the GI50 was > 100 µM (inactive) in the assay with OVCAR-8; > 100 µM (inactive) in the assay on NCI-H460; > 100 µM (inactive) in the assay with Malme-3M; > 100 µM (inactive) in the assay on A549; greater than 100 µM with HCT-15; 51.8 µM (inactive) with MDA-MB-231. In the assay on ACHN, the GI50 was > 100 µM (inactive).

As to `CN(C(=O)c1ccc(OCCCC(=O)O)c(Cl)c1Cl)C1CCCC1`, the GI50 was > 100 µM (inactive) in the assay with UACC-257; > 100 µM (inactive) with SF-539; > 100 µM (inactive) in the assay with NCI/ADR-RES; > 100 µM (inactive) with HCC 2998; > 76.7 µM (inactive) in the assay with NCI-H23; > 96.4 µM (inactive) in the assay on SF-268. Also, the GI50 in the assay with SW-620 is > 100 µM (inactive); in the assay on SK-MEL-2, > 79.8 µM (inactive); with NCI-H226 it was 83.8 µM (inactive); with SK-OV-3, > 100 µM (inactive); in the assay on U-251, > 100 µM (inactive); in the assay with OVCAR-8, > 100 µM (inactive). The GI50 in the assay on NCI-H460 is > 95.3 µM (inactive); in the assay with Malme-3M it was > 100 µM (inactive); with A549, > 100 µM (inactive); in the assay on HCT-15, greater than 100 µM.

`CCSc1nc(N)c2c(-c3ccc(OC)c(OC)c3)c3c(nc2n1)CCCC3`: the GI50 in the assay on UACC-257, in the assay on SF-539, with NCI/ADR-RES, in the assay on TK-10, with NCI-H23 and in the assay with SF-268 was > 100 µM (inactive) each time. Moreover, the GI50 in the assay on SW-620, in the assay with SK-OV-3, with M14, in the assay with U-251, in the assay with OVCAR-8 and in the assay with NCI-H460 was > 100 µM (inactive) in each case. The GI50 is > 100 µM (inactive) in the assay with Malme-3M; > 100 µM (inactive) in the assay with A549; greater than 100 µM in the assay with HCT-15; > 100 µM (inactive) in the assay on MDA-MB-231; > 100 µM (inactive) in the assay with ACHN.

As for `CCP(=O)(CC)C(Cl)Cl`, the GI50 in the assay with UACC-257, in the assay with NCI/ADR-RES, in the assay on TK-10, with HCC 2998, with NCI-H23 and in the assay with SW-620 was > 100 µM (inactive) in each case. In addition, the GI50 in the assay with SK-MEL-2, in the assay on NCI-H226, in the assay on SK-OV-3, in the assay with M14, in the assay on U-251 and with OVCAR-8 was > 100 µM (inactive) in each case. The GI50 in the assay with NCI-H460 was > 100 µM (inactive); with A549, > 100 µM (inactive); in the assay on HCT-15, greater than 100 µM; in the assay on MDA-MB-231, > 100 µM (inactive); in the assay with ACHN, > 100 µM (inactive).

Take `COC(=O)C1=C(O)C(C(=O)OC)[C@]2(O)[C@@H](C(=O)OC)[C@H]1C[C@@H](c1ccccc1)[C@@H]2C(=O)OC` (stereo not given in full): the GI50 with UACC-257 was 10.3 µM (inactive); in the assay on SF-539, 12.6 µM (inactive); in the assay with TK-10, 23.7 µM (inactive); in the assay on HCC 2998 it was 14.2 µM (inactive); in the assay with NCI-H23, 15.2 µM (inactive); in the assay with SF-268, 1.96 µM (inactive). Besides, the GI50 is 13.9 µM (inactive) in the assay with SK-MEL-2; 18.6 µM (inactive) in the assay on NCI-H226; 17.4 µM (inactive) in the assay on SK-OV-3; 10.8 µM (inactive) in the assay with M14; 16.1 µM (inactive) with U-251; 14 µM (inactive) with NCI-H460. In addition, the GI50 was 18.2 µM (inactive) in the assay on Malme-3M, 13.1 µM with HCT-15, 16.1 µM (inactive) with MDA-MB-231 and 17.9 µM (inactive) with ACHN.

On to `COP(=O)(OC)C(Cc1cn(C(C)=O)c2ccccc12)C(=O)O` (stereo not given), for which the GI50 in the assay with UACC-257, in the assay on NCI/ADR-RES, in the assay on TK-10, in the assay with HCC 2998, in the assay on NCI-H23 and in the assay on SW-620 was > 100 µM (inactive) throughout. Moreover, the GI50 in the assay on SK-MEL-2, in the assay on NCI-H226, with SK-OV-3, in the assay on M14, in the assay on U-251 and in the assay on OVCAR-8 was > 100 µM (inactive) each time. Besides, the GI50 with NCI-H460 is > 100 µM (inactive); with A549, > 100 µM (inactive); with HCT-15, greater than 100 µM; with MDA-MB-231, > 100 µM (inactive); in the assay with ACHN it was > 100 µM (inactive).

Regarding `C/C([O-])=C(/c1nc(-c2ccc([N+](=O)[O-])o2)no1)[n+]1cc(C)ccc1C`, the GI50 is 11.9 µM (inactive) with UACC-257; 4.99 µM (inactive) with SF-539; 35 µM (inactive) in the assay on NCI/ADR-RES; 13 µM (inactive) in the assay on HCC 2998; 12.1 µM (inactive) in the assay on NCI-H23; 20.3 µM (inactive) in the assay on SF-268. Further, the GI50 with SW-620 was 5.31 µM (inactive); with SK-MEL-2, 7.94 µM (inactive); in the assay with NCI-H226 it was 15.7 µM (inactive); with SK-OV-3 it was 35.6 µM (inactive); in the assay on U-251, 8.11 µM (inactive); with OVCAR-8, 19.8 µM (inactive). Further, the GI50 with NCI-H460 was 4.62 µM (inactive); in the assay on Malme-3M it was 14.3 µM (inactive); with A549, 15 µM (inactive); in the assay on HCT-15, 7.03 µM.

Values taken from ChEMBL document CHEMBL1201862, “PubChem BioAssay data set” (2004).
